According to PMC10714400, “Antimicrobial Peptide–Peptoid Hybrids with and without Membrane Disruption” (ACS Infectious Diseases, 2023):
Where two headings read alike, the source gives them in different places.

Assays:
HEK293 cells = assay: Cell viability assay by Alamar blue; conditions: read-out: Toxicity on HEK293 cells; CSV
Method in brief: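 Alamar blue viability readout on HEK293 cells grown in DMEM high glucose and A549 cells grown in RPMI-1640, each with 10% FBS and 1% penicillin/streptomycin, at 37 °C under 5% CO2. Mean ± SD, n = 3.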

PA14 2P4 (pmrB) = test system: PA14 2P4 (pmrB)
Method in brief: (§1)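 MIC read visually after MTT staining: lowest compound concentration preventing visible growth (yellow wells). Inoculum ~5 × 10^5 CFU per well in MH broth; static incubation at 37 °C for ca. 18 h.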

P. aeruginosa PAO1 = test system: P. aeruginosa PAO1
Method in brief: as §1

PA14 4.18 (pmrB) = test system: PA14 4.18 (pmrB)
Method in brief: as §1

PA14 4.13 (phoQ) = test system: PA14 4.13 (phoQ)
Method in brief: as §1

[1] = test system: ZEM-1A (clinical MDR P. aeruginosa isolate)
Method in brief: as §1

E. coli W3110 = test system: E. coli W3110
Method in brief: as §1

K. pneumoniae OXA-48 = test system: K. pneumoniae OXA-48
Method in brief: as §1

E. cloacae = test system: E. cloacae
Method in brief: as §1

S. aureus Newman = test system: S. aureus Newman
Method in brief: as §1

S. maltophilia = test system: S. maltophilia
Method in brief: as §1

S. epidermis = test system: S. epidermis
Method in brief: as §1

B. cenocepacia = test system: B. cenocepacia
Method in brief: as §1

P. aeruginosa PA14 = test system: P. aeruginosa PA14
Method in brief: as §1

[2] = Circular dichroism, α-helical content; assay type: physicochemical; conditions: 0.1 mg/mL; for CD %α with 5 mM DPC: 10 mM phosphate buffer pH 7.4, 5 mM DPC; for CD %α with 20% TFE: 10 mM phosphate buffer pH 7.4, 20% TFE
[3] = test system: human red blood cells (hRBC); assay: Minimum hemolytic concentration (MHC); assay type: cell-based; conditions: CSV
Description: We also measured minimal hemolysis concentrations (MHC) on human red blood cells by serial 2-fold dilution as an indication of toxicity against eukaryotic cells (Table 1).

H-KKLLKLLKLLL-NH2 [ln65, reference compound]
>32 µg/mL: MIC B. cenocepacia (B. cenocepacia; MH pH 7.4, 16–20 h at 37 °C)
16 µg/mL: MIC P. aeruginosa PAO1 Full MH 8.5 (P. aeruginosa PAO1; Table S2, full MH, pH 8.5)
1 µg/mL: MIC S. epidermis (S. epidermis; Table S3, […] MH at pH 8.5)
3 ug/mL: MIC P. aeruginosa PA14 2P4, […] MH at pH 8.5 (PA14 2P4 (pmrB); CSV, […] MH at pH 8.5) | MIC P. aeruginosa PAO1, full MH at pH 7.4 (P. aeruginosa PAO1; CSV, full MH at pH 7.4) | MIC P. aeruginosa PA14 4.18, […] MH at pH 8.5 (PA14 4.18 (pmrB); CSV, […] MH at pH 8.5) | MIC P. aeruginosa PA14, full MH at pH 7.4 (P. aeruginosa PA14; CSV, full MH at pH 7.4)
64%: CD %α with 20% TFE ([2]; DichroWeb, Contin-LL) | CD %α with 20% TFE ([2]; Table S2)
32 µg/mL: MIC PA14 2P4 (pmrB) (PA14 2P4 (pmrB); MH pH 7.4, 16–20 h at 37 °C) | MIC PA14 4.18 (pmrB) (PA14 4.18 (pmrB); MH pH 7.4, 16–20 h at 37 °C)
16 ug/mL: MIC P. aeruginosa PAO1, full MH at pH 8.5 (P. aeruginosa PAO1; CSV, full MH at pH 8.5)
2 µg/mL: MIC P. aeruginosa PA14 4.13 (PA14 4.13 (phoQ); Table S3, […] MH at pH 8.5) | MIC ZEM-1A ([1]; MH pH 7.4, 16–20 h at 37 °C) | MIC E. coli W3110 […] 7.4 (E. coli W3110; Table S2, […] MH, pH 7.4) | MIC E. coli W3110 […] 8.5 (E. coli W3110; Table S2, […] MH, pH 8.5) | MIC K. pneumoniae OXA-48 (K. pneumoniae OXA-48; MH pH 7.4, 16–20 h at 37 °C) | MIC E. cloacae (E. cloacae; MH pH 7.4, 16–20 h at 37 °C) | MIC S. aureus Newman (S. aureus Newman; MH pH 7.4, 16–20 h at 37 °C) | MIC S. aureus Newman (S. aureus Newman; Table S3, […] MH at pH 8.5) | MIC S. maltophilia (S. maltophilia; MH pH 7.4, 16–20 h at 37 °C) | MIC S. epidermis (S. epidermis; MH pH 7.4, 16–20 h at 37 °C) | MIC P. aeruginosa PA14 (P. aeruginosa PA14; Table S3, […] MH at pH 8.5, 16-20 hours at 37 °C)
32 ug/mL: MIC P. aeruginosa PA14 2P4, full MH at pH 7.4 (PA14 2P4 (pmrB); CSV, full MH at pH 7.4) | MIC P. aeruginosa PA14 4.18, full MH at pH 7.4 (PA14 4.18 (pmrB); CSV, full MH at pH 7.4)
4 ug/mL: MIC P. aeruginosa PAO1, […] MH at pH 7.4 (P. aeruginosa PAO1; CSV, […] MH at pH 7.4) | MIC P. aeruginosa PAO1, […] MH at pH 8.5 (P. aeruginosa PAO1; CSV, […] MH at pH 8.5) | MIC P. aeruginosa PA14 4.13, full MH at pH 7.4 (PA14 4.13 (phoQ); CSV, full MH at pH 7.4) | MIC P. aeruginosa ZEM-1A, […] MH at pH 8.5 ([1]; CSV, […] MH at pH 8.5) | MIC E. coli W3110, full MH at pH 7.4 (E. coli W3110; CSV, full MH at pH 7.4) | MIC K. pneumoniae OXA-48, […] MH at pH 8.5 (K. pneumoniae OXA-48; CSV, […] MH at pH 8.5) | MIC E. cloacae, […] MH at pH 8.5 (E. cloacae; CSV, […] MH at pH 8.5) | MIC S. maltophilia, […] MH at pH 8.5 (S. maltophilia; CSV, […] MH at pH 8.5)
2 ug/mL: MIC P. aeruginosa PA14 4.13, […] MH at pH 8.5 (PA14 4.13 (phoQ); CSV, […] MH at pH 8.5) | MIC P. aeruginosa ZEM-1A, full MH at pH 7.4 ([1]; CSV, full MH at pH 7.4) | MIC E. coli W3110, […] MH at pH 7.4 (E. coli W3110; CSV, […] MH at pH 7.4) | MIC E. coli W3110, […] MH at pH 8.5 (E. coli W3110; CSV, […] MH at pH 8.5) | MIC K. pneumoniae OXA-48, full MH at pH 7.4 (K. pneumoniae OXA-48; CSV, full MH at pH 7.4) | MIC E. cloacae, full MH at pH 7.4 (E. cloacae; CSV, full MH at pH 7.4) | MIC S. aureus Newman, […] MH at pH 8.5 (S. aureus Newman; CSV, […] MH at pH 8.5) | MIC S. aureus Newman, full MH at pH 7.4 (S. aureus Newman; CSV, full MH at pH 7.4) | MIC S. maltophilia, full MH at pH 7.4 (S. maltophilia; CSV, full MH at pH 7.4) | MIC S. epidermis, full MH at pH 7.4 (S. epidermis; CSV, full MH at pH 7.4) | MIC P. aeruginosa PA14, […] MH at pH 8.5 (P. aeruginosa PA14; CSV, […] MH at pH 8.5)
73%: CD %α with 5 mM DPC ([2]; DichroWeb, Contin-LL) | CD %α with 5 mM DPC ([2]; Table S2)
8 µg/mL: MIC E. coli W3110 Full MH 8.5 (E. coli W3110; Table S2, full MH, pH 8.5)
125 µg/mL: MHC [3]
4 µg/mL: MIC P. aeruginosa PAO1 […] 7.4 (P. aeruginosa PAO1; Table S2, […] MH, pH 7.4) | MIC P. aeruginosa PAO1 […] 8.5 (P. aeruginosa PAO1; Table S2, […] MH, pH 8.5) | MIC P. aeruginosa PAO1 […] (P. aeruginosa PAO1; diluted MH ([…] MH, pH 8.5) per Table 1 footnote b, 16–20 h at 37 °C) | MIC PA14 4.13 (phoQ) (PA14 4.13 (phoQ); MH pH 7.4, 16–20 h at 37 °C) | MIC P. aeruginosa ZEM-1A ([1]; Table S3, […] MH at pH 8.5) | MIC E. coli W3110 Full MH 7.4 (E. coli W3110; Table S2, full MH, pH 7.4) | MIC K. pneumoniae OXA-48 (K. pneumoniae OXA-48; Table S3, […] MH at pH 8.5) | MIC E. cloacae (E. cloacae; Table S3, […] MH at pH 8.5) | MIC S. maltophilia (S. maltophilia; Table S3, […] MH at pH 8.5)
2 to 4 µg/mL: MIC P. aeruginosa PA14 2P4 (PA14 2P4 (pmrB); Table S3, […] MH at pH 8.5) | MIC P. aeruginosa PAO1 Full MH 7.4 (P. aeruginosa PAO1; Table S2, full MH, pH 7.4) | MIC P. aeruginosa PAO1 Full (P. aeruginosa PAO1; full MH, pH 7.4, 16–20 h at 37 °C) | MIC P. aeruginosa PA14 4.18 (PA14 4.18 (pmrB); Table S3, […] MH at pH 8.5) | MIC P. aeruginosa PA14 (P. aeruginosa PA14; MH pH 7.4, 16–20 h at 37 °C)
>32 ug/mL: MIC B. cenocepacia, full MH at pH 7.4 (B. cenocepacia; CSV, full MH at pH 7.4)
27 ± 6 µM: IC50 (HEK293 cells)
1 ug/mL: MIC S. epidermis, […] MH at pH 8.5 (S. epidermis; CSV, […] MH at pH 8.5)
